This experiment concerns Delayed type hypersensitivity (DTH) skin reaction. Nature of the experiment: Inhibition of DTH skin reactions (oxazolone-induced mouse ear swelling test). It counts as in vivo, female Balb/c mice. To be noted: for % Inf ((diff/baseline measurement)×100) / % Inhibit ([1−(diff/diff of PBS)]×100) / Diff. (average difference between baseline and post treatment ear measurements): 24 hours after challenge; for effectiveness in the DTH skin reaction model: 5-100 mg/ml. As to the method: Delayed type hypersensitivity (DTH), a localized inflammatory reaction induced by cytokines secreted by TH cells when they encounter certain types of antigens, is an established experimental model for skin inflammation.
DTH reactions were induced in the abdomen skin of 8 week old female Balb/c mice. The mice were sensitized first by topical application of 100 μl of a 5% Oxazolone (4-Ethoxymethylene-2-phenyl-2-oxazolin-5-one; Sigma) solution in ethanol/acetone (3:1, vol/vol) to a shaved abdomen. The mice were anesthetized with ip injection of Ketamine (1 ml)+Xylazine (1 ml)+Saline (8 ml), (0.2 ml per 20 g mouse). Anesthetization was performed before the shaving of the abdomen and the first sensitization.
After 4 days the mice were challenged for the second time using 1% Oxazolone (4-Ethoxymethylene-2-phenyl-2-oxazolin-5-one; Sigma) solution in ethanol/acetone (3:1, vol/vol). The solution was pipetted to the shaved abdomen of the mice.
Six days after the first sensitization, the right ear of each mouse was challenged with a topical application of 20 μl (10 μl on each surface of the ear) of a 1% Oxazolone solution in olive oil/acetone (3:1, vol/vol).
Treatment was given 30 min after challenging by applying 40 μl (20 μl on each surface of the ear) of treatment compounds on the challenged ear of each mouse.
After 24 hours, the extent of inflammation was measured using the mouse ear swelling test (caliper) and the percent inhibition induced by the treatment was quantified.
The experiment includes groups treated with 5, 15, 40, and 100 mg/ml of octadec-(Z)-9-enoic acid 4-dimethylaminomethyl-benzyl ester HCl (1c) and groups treated with 5, 15, 40, and 100 mg/ml of octadec-(Z)-9-enoic acid 4-dimethylaminomethyl-phenyl ester HCl (2d). The experiment also includes dexamethasone (2 mg/mouse) as a positive control, one negative control group (PBS, phosphate buffered saline), and one naïve group. There were 6 mice per group. The researchers who performed the measurements were blinded as to the grouping of each mouse.
In Table 1, “diff” refers to average difference between baseline and post treatment measurements in mm; “% Inf” refers to the (diff/baseline measurement)×100; and, “% Inhibit” refers to [1−(diff/diff of PBS)]×100. Baseline measurements of the ear were conducted before the first sensitization.

[1] abbreviates: topical on challenged ear, treatment 5 mg/ml (0.2 mg/mouse).
Where [2] appears, read: topical on challenged ear, treatment 15 mg/ml (0.6 mg/mouse).
Setting [3] is: topical on challenged ear, treatment 40 mg/ml (1.6 mg/mouse).
[4] abbreviates: topical on challenged ear, treatment 100 mg/ml (4 mg/mouse).
[5] abbreviates: positive control, dose 2 mg/mouse.

Experimental findings from patent publication US7294739B1, “Basic amine esters or oleic acid and their use as anti-inflammatory or immunobodulatory agents” (Teva Pharmacaetical Industries Ltd., priority 2006, dated 2007) are described below.

As for `CCCCCCCC/C=C\CCCCCCCC(=O)OCc1ccc(CN(C)C)cc1.Cl` [Compound 1c, Octadec-(Z)-9-enoic acid 4-dimethylaminomethyl-benzyl ester HCl], the “% Inf ((diff/baseline measurement)×100)” value under setting [1] is 92.65%, the “% Inf ((diff/baseline measurement)×100)” value under setting [2] was 103.21%, the “% Inf ((diff/baseline measurement)×100)” value under setting [3] is 58.56% and the “% Inf ((diff/baseline measurement)×100)” value under setting [4] is 48.19%. For the same compound, the “% Inhibit ([1−(diff/diff of PBS)]×100)” value is listed as 26.74% under setting [1], 26.01% under setting [2], 54.82% under setting [3] and 63.37% under setting [4]. Moreover, the “Diff. (average difference between baseline and post treatment ear measurements)” value stood at 0.20 mm under setting [1], 0.20 mm under setting [2], 0.12 mm under setting [3] and 0.10 mm under setting [4]. The “effectiveness in the DTH skin reaction model” value (topical) is given as “effective”.
Compound `CCCCCCCC/C=C\CCCCCCCC(=O)Oc1ccc(CN(C)C)cc1.Cl` [Compound 2d, Octadec-(Z)-9-enoic acid 4-dimethylaminomethyl-phenyl ester HCl] gave a most effective doses (DTH skin reaction model, topical) of 100 mg/mL. The “% Inf ((diff/baseline measurement)×100)” value under setting [1] was determined as 113.46%, the “% Inf ((diff/baseline measurement)×100)” value under setting [2] is recorded as 107.18%, the “% Inf ((diff/baseline measurement)×100)” value under setting [3] stood at 114.66% and the “% Inf ((diff/baseline measurement)×100)” value under setting [4] is on record as 55.96%. In addition, the “% Inhibit ([1−(diff/diff of PBS)]×100)” value under setting [1] was 13.31%, the “% Inhibit ([1−(diff/diff of PBS)]×100)” value under setting [2] came out at 21.25%, the “% Inhibit ([1−(diff/diff of PBS)]×100)” value under setting [3] was determined as 13.31% and the “% Inhibit ([1−(diff/diff of PBS)]×100)” value under setting [4] is 59.10%. The “Diff. (average difference between baseline and post treatment ear measurements)” value reads like this: under setting [1], 0.24 mm; under setting [2], 0.22 mm; under setting [3], 0.24 mm; under setting [4], 0.11 mm. For the same compound, the “effectiveness in the DTH skin reaction model” value (topical) is “effective”.
Turning to `C[C@@H]1C[C@H]2[C@@H]3CCC4=CC(=O)C=C[C@]4(C)[C@@]3(F)[C@@H](O)C[C@]2(C)[C@@]1(O)C(=O)CO` [Positive control, dexamethasone, reference compound], under setting [5], the “% Inf ((diff/baseline measurement)×100)” value amounted to 20.55%; the “% Inhibit ([1−(diff/diff of PBS)]×100)” value worked out at 84.74%; the “Diff. (average difference between baseline and post treatment ear measurements)” value came to 0.04 mm.
